Results on 20 compounds are retold here after patent US20260365671A1, “HETEROCYCLIC COMPOUND” (Takeda Pharmaceutical Company Limited, priority 2022, published 2026).

Each structure is given as a SMILES string. pIC50: −log10 of the molar value.

One assay concerns NF-κB pathway. The assay is described as follows: TNF-α assay (THP-1 cells differentiated to macrophages with IFN-γ, NF-κB pathway activated with LPS; ELISA). Format: cell-based, Human. Particulars: compound 30 min, 50 ng/mL LPS 3 hours. The procedure, abridged: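 THP-1 cells differentiated with 25 ng/mL IFN-γ for 24 h, then 30 min with compounds in serum-free medium. NF-κB activated with 50 ng/mL LPS, 3 h at 37 °C. Supernatant TNF-α by ELISA; IC50 from four-parameter logistic fit of % inhibition.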

The target in another assay is T1, NLRP3 inflammasome (Homo sapiens, UniProt Q96P20).
T1 construct: IL-1beta HTRF
The assay is described as follows: IL-1β TR-FRET assay (THP-1 cells differentiated to macrophages with IFN-γ, LPS primed, ATP activated; HTRF). Conditions: THP-1 macrophages, 50 ng/mL LPS priming, compound 30 min, 20 mM ATP 2 hours. It counts as cell-based. A digest of the protocol: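 THP-1 cells differentiated with 25 ng/mL IFN-γ for 24 h, primed with 50 ng/mL LPS in serum-free medium for 24 h, then treated with compounds for 30 min before 20 mM ATP activation for 2 h at 37 °C. Secreted IL-1β quantified by HTRF; IC50 from logistic fit of % inhibition.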

[1] abbreviates: Homo sapiens, THP-1, THP-1 macrophages.

T1 sequence (Q96P20 whole entry): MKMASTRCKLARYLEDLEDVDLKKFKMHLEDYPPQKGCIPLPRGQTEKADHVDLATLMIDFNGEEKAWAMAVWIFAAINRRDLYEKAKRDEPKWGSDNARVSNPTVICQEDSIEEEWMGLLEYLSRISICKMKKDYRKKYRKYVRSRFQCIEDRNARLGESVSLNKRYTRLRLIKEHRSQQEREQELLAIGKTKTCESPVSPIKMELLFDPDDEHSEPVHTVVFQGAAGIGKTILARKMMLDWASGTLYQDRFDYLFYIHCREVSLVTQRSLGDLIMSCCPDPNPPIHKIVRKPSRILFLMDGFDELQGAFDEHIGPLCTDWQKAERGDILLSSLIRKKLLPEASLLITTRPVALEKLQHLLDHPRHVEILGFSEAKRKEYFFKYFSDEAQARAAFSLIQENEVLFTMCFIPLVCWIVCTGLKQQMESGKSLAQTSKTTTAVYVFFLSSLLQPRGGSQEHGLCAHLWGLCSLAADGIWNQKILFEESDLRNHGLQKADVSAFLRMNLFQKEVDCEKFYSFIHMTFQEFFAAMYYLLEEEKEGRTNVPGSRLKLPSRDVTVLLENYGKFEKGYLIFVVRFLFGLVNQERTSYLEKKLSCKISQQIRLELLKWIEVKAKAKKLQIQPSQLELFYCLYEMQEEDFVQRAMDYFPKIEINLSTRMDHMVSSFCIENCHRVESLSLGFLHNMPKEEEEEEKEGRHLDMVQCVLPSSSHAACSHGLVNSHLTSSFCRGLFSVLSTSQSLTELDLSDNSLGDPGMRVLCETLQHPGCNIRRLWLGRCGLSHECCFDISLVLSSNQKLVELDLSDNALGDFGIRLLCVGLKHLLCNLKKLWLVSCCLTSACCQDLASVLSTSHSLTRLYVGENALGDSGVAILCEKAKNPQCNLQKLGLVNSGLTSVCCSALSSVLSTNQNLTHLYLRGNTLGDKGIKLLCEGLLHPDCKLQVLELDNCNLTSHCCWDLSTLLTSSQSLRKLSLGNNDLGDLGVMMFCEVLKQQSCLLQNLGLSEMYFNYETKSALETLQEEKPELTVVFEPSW

With `Cc1cc(C)c(-n2cc3sc(N[C@@H]4C[C@H](C(F)F)CN(C)C4)nc3n2)c(O)c1` [Example 33, 2-(5-{[(3R,5S)-5-(difluoromethyl)-1-methylpiperidin-3-yl]amino}-2H-pyrazolo[3,4-d][1,3]thiazol-2-yl)-3,5-dimethylphenol], the pIC50 was < 5.00 in the assay with NF-κB pathway (setting [1]) and 5.82 on NLRP3 inflammasome.
The corresponding values for `Cc1cc(C)c(-n2cc3sc(NC[C@@H](C)O)nc3n2)c(O)c1` [Example 34, 2-(5-{[(2R)-2-hydroxypropyl]amino}-2H-pyrazolo [3,4-d][1,3]thiazol-2-yl)-3,5-dimethylphenol] are < 5.00 and 6.82.
In the case of `Cc1cc(C)c(-n2cc3sc(N[C@@H]4CCCN(CC(F)F)C4)nc3n2)c(O)c1` [Example 35, 2-(5-{[(3R)-1-(2,2-difluoroethyl)piperidin-3-yl]amino}-2H-pyrazolo[3,4-d][1,3]thiazol-2-yl)-3,5-dimethylphenol], the pIC50 in the assay with NF-κB pathway (setting [1]) was < 5.00; against NLRP3 inflammasome, 7.17.
In the case of `COCCN1CCC[C@@H](Nc2nc3nn(-c4c(C)cc(C)cc4O)cc3s2)C1` [Example 36, 2-(5-{[(3R)-1-(2-methoxyethyl)piperidin-3-yl]amino}-2H-pyrazolo[3,4-d][1,3]thiazol-2-yl)-3,5-dimethylphenol], the pIC50 with NF-κB pathway (setting [1]) is < 4.52; at NLRP3 inflammasome, 7.47.
The corresponding values for `COCCN(c1nc2nn(-c3c(C)cc(C)cc3O)cc2s1)[C@@H]1CCCNC1` [Example 37, 2-(5-{(2-methoxyethyl)[(3R)-piperidin-3-yl]amino}-2H-pyrazolo[3,4-d][1,3]thiazol-2-yl)-3,5-dimethylphenol] are < 4.52 and 6.92.
For `CC(=O)NCCNc1nc2nn(-c3c(C)cc(C)cc3O)cc2s1` [Example 38, N-(2-{[2-(2-hydroxy-4,6-dimethylphenyl)-2H-pyrazolo[3,4-d][1,3]thiazol-5-yl]amino}ethyl)acetamide], the pIC50 with NF-κB pathway (setting [1]) is < 4.52; on NLRP3 inflammasome, 6.36.
The matching figures for `CC(=O)NCCCCNc1nc2nn(-c3c(C)cc(C)cc3O)cc2s1` [Example 39]: < 4.52 and 6.41.
With `CO[C@H]1CN(C)C[C@@H]1Nc1nc2nn(-c3c(C)cc(C)cc3O)cc2s1` [Example 40, 2-(5-{[(3S,4S)-4-methoxy-1-methylpyrrolidin-3-yl]amino}-2H-pyrazolo[3,4-d][1,3]thiazol-2-yl)-3,5-dimethylphenol], the pIC50 is < 4.52 in the assay on NF-κB pathway (setting [1]) and 5.74 against NLRP3 inflammasome.
For `Cc1cc(C)c(-n2cc3sc(N[C@@H]4C[C@@H](C(F)F)CN(C)C4)nc3n2)c(O)c1` [Example 41, 2-(5-{[(3R,5R)-5-(difluoromethyl)-1-methylpiperidin-3-yl]amino}-2H-pyrazolo[3,4-d][1,3]thiazol-2-yl)-3,5-dimethylphenol], the pIC50 in the assay with NF-κB pathway (setting [1]) is < 5.00; against NLRP3 inflammasome, 5.82.
The corresponding values for `Cc1cc(C)c(-n2cc3sc(N[C@@H]4CCCN(CCF)C4)nc3n2)c(O)c1` [Example 42, 2-(5-{[(3R)-1-(2-fluoroethyl)piperidin-3-yl]amino}-2H-pyrazolo[3,4-d][1,3]thiazol-2-yl)-3,5-dimethylphenol] are < 4.52 and 7.85.
The matching figures for `COc1cc(C)c(-n2cc3sc(N[C@@H]4C[C@@H](F)CN(C)C4)nc3n2)c(O)c1` [Example 43, 2-(5-{[(3R,5R)-5-fluoro-1-methylpiperidin-3-yl]amino}-2H-pyrazolo[3,4-d][1,3]thiazol-2-yl)-5-methoxy-3-methylphenol]: < 4.52 and 7.55.
The corresponding values for `Cc1cc(C)c(-n2cc3sc(N[C@@H]4CC[C@@H](O)C4)nc3n2)c(O)c1` [Example 44, 2-(5-{[(1R,3R)-3-hydroxycyclopentyl]amino}-2H-pyrazolo[3,4-d][1,3]thiazol-2-yl)-3,5-dimethyphenol or 2-(5-{[(1S,3S)-3-hydroxycyclopentyl]amino}-2H-pyrazolo[3,4-d][1,3]thiazol-2-yl)-3,5-dimethylphenol (tR1)] are < 5.00 and 6.62.
For `Cc1cc(C)c(-n2cc3sc(N[C@@H]4CC[C@@H](O)C4)nc3n2)c(O)c1` [Example 45, 2-(5-{[(1R,3R)-3-hydroxycyclopentyl]amino}-2H-pyrazolo[3,4-d][1,3]thiazol-2-yl)-3,5-dimethylphenol or 2-(5-{[(1S,3S)-3-hydroxycyclopentyl]amino}-2H-pyrazolo[3,4-d][1,3]thiazol-2-yl)-3,5-dimethylphenol (tR2)], the pIC50 with NF-κB pathway (THP-1 macrophages) is < 5.00; on NLRP3 inflammasome it was 6.48.
On to `Cc1cc(C)c(-n2cc3sc(N[C@@H]4CC[C@H](O)C4)nc3n2)c(O)c1` [Example 46, 2-(5-{[(1R,3S)-3-hydroxycyclopentyl]amino}-2H-pyrazolo[3,4-d][1,3]thiazol-2-yl)-3,5-dimethylphenol or 2-(5-{[(1S,3R)-3-hydroxycyclopentyl]amino}-2H-pyrazolo[3,4-d][1,3]thiazol-2-yl)-3,5-dimethylphenyl (tR1)], for which the values for the pIC50 in the assay on NF-κB pathway (setting [1]) and at NLRP3 inflammasome were < 5.00 and 6.48, respectively.
With `Cc1cc(C)c(-n2cc3sc(N[C@@H]4CC[C@H](O)C4)nc3n2)c(O)c1` [Example 47, 2-(5-{[(1R,3S)-3-hydroxycyclopentyl]amino}-2H-pyrazolo[3,4-d][1,3]thiazol-2-yl)-3,5-dimethylphenol or 2-(5-{[(1S,3R)-3-hydroxycyclopentyl]amino}-2H-pyrazolo[3,4-d][1,3]thiazol-2-yl)-3,5-dimethylphenol (tR2)], the results for the negative-log IC50 (pIC50) with NF-κB pathway (THP-1 macrophages) and against NLRP3 inflammasome were < 5.00 and 5.92, respectively.
Regarding `COc1cc(C)cc(O)c1-n1cc2sc(N[C@@H]3C[C@@H](F)CN(C)C3)nc2n1` [Example 48, 2-(5-{[(3R,5R)-5-fluoro-1-methylpiperidin-3-yl]amino}-2H-pyrazolo[3,4-d][1,3]thiazol-2-yl)-3-methoxy-5-methylphenol], the values for the pIC50 with NF-κB pathway (setting [1]) and on NLRP3 inflammasome were < 5.00 and 6.89, respectively.
`Cc1cc(C)c(-n2cc3sc(N(C)C)nc3n2)c(O)c1` [Example 49, 2-[5-(dimethylamino)-2H-pyrazolo[3,4-d][1,3]thiazol-2-yl]-3,5-dimethylphenol]: the negative logarithm of the IC50 (pIC50) in the assay on NF-κB pathway (setting [1]) was < 4.52; against NLRP3 inflammasome it was 5.89.
The corresponding values for `Cc1cc(O)c(-n2cc3sc(N[C@@H]4C[C@@H](F)CN(C)C4)nc3n2)c(OC(F)F)c1` [Example 50, 3-(difluoromethoxy)-2-(5-{[(3R,5R)-5-fluoro-1-methylpiperidin-3-yl]amino}-2H-pyrazolo[3,4-d][1,3]thiazol-2-yl)-5-methylphenol] are < 4.52 and 7.92.
The matching figures for `CCN1C[C@H](F)C[C@@H](Nc2nc3nn(-c4c(O)cc(C)cc4OC(F)F)cc3s2)C1` [Example 51, 3-(difluoromethoxy)-2-(5-{[(3R,5R)-1-ethyl-5-fluoropiperidin-3-yl]amino}-2H-pyrazolo[3,4-d][1,3]thiazol-2-yl)-5-methylphenol]: < 4.52 and 8.55.
The matching figures for `COCCN(c1nc2nn(-c3c(C)cc(C)cc3O)cc2s1)[C@@H]1CCCN(C)C1` [Example 52, 2-(5-{(2-methoxyethyl)[(3R)-1-methylpiperidin-3-yl]amino}-2H-pyrazolo[3,4-d][1,3]thiazol-2-yl)-3,5-dimethylphenol]: < 5.00 and 6.70.
